# Measurements taken from patent publication US20060263802A1 (priority 2003, published 2006).
# How the values were obtained:
# Assay type in all cases: binding
# [1] = test system: human monoclonal antibody CRJA
# [2] = test system: human monoclonal antibody CRJB
# [3] = test system: human monoclonal antibody CR57
# [4] = test system: human monoclonal antibody CRJB; remark: listed apart in the source
# [5] = test system: human monoclonal antibody CR57; remark: listed apart in the source
# [6] = test system: human monoclonal antibody CRJA; remark: listed apart in the source
Sequence,Binding of CRJA (10 μg/ml) to looped/cyclic peptide (PEPSCAN-ELISA) [1],Binding of CRJB to linear peptide (PEPSCAN-ELISA signal) [2],Binding of CR57 to linear peptide (PEPSCAN-ELISA signal) [3],Binding of CRJB (10 μg/ml) to looped/cyclic peptide (PEPSCAN-ELISA) [4],Binding of CR57 (10 μg/ml) to looped/cyclic peptide (PEPSCAN-ELISA) [5],Binding of CRJA to linear peptide (PEPSCAN-ELISA signal) [6],Binding of CRJA (10 μg/ml) to looped/cyclic peptide (PEPSCAN-ELISA signal) [1],Binding of CRJB (10 μg/ml) to looped/cyclic peptide (PEPSCAN-ELISA signal) [4],Binding of CR57 (10 μg/ml) to looped/cyclic peptide (PEPSCAN-ELISA signal) [5],Binding of CRJA to looped/cyclic peptide (PEPSCAN-ELISA signal) [1],Binding of human monoclonal antibody CRJB to linear peptide (PEPSCAN-ELISA signal) [2],Binding of human monoclonal antibody CR57 to linear peptide (PEPSCAN-ELISA signal) [3],Binding of CRJB to looped/cyclic peptide (PEPSCAN-ELISA signal) [4],Binding of CR57 to looped/cyclic peptide (PEPSCAN-ELISA signal) [5],Binding of human monoclonal antibody CRJA to linear peptide (PEPSCAN-ELISA signal) [6]
ECLDALESIMTTKSV,110,112,91,90,96,103,–,–,–,–,–,–,–,–,–
EDEGCTNLSGFSYME,–,90,54,–,–,65,54,68,76,–,–,–,–,–,–
EDFVEVHLPDVHNQV,–,–,–,–,–,–,–,–,–,104,141,90,89,117,114
EECLDALESIMTTKS,105,120,82,70,105,98,–,–,–,–,–,–,–,–,–
EELVRKREECLDALE,104,112,69,2,79,118,–,–,–,–,–,–,–,–,–
EESLHNPYPDYRWLR,–,123,76,–,–,85,100,85,121,–,–,–,–,–,–
EGCTNLSGFSYMELK,–,114,51,–,–,59,38,73,39,–,–,–,–,–,–
EHLVVEELVRKREEC,93,114,82,83,89,76,–,–,–,–,–,–,–,–,–
EIEHLVVEELVRKRE,93,113,82,89,107,86,–,–,–,–,–,–,–,–,–
EILPSKGCLRVGGRC,111,112,104,97,132,106,–,–,–,–,–,–,–,–,–
ELKVGYILAIKMNGF,–,132,87,–,–,84,93,83,84,–,–,–,–,–,–
ELLESSVIPLVHPLA,73,133,90,88,112,85,–,–,–,–,–,–,–,–,–
ELVRKREECLDALES,98,113,82,71,93,97,–,–,–,–,–,–,–,–,–
EMQSSLLQQHMELLE,88,129,58,98,78,94,–,–,–,–,–,–,–,–,–
ENPRLGMSCDIFTNS,–,118,71,–,–,101,113,88,100,–,–,–,–,–,–
ENYTNFVGYVTTTFK,–,112,44,–,–,80,58,80,60,–,–,–,–,–,–
ERGLYKSLKGACKLK,104,118,90,72,100,101,–,–,–,–,–,–,–,–,–
ESIMTTKSVSFRRLS,49,111,62,92,80,61,–,–,–,–,–,–,–,–,–
ESLHNPYPDYRWLRT,–,132,92,–,–,80,106,92,123,–,–,–,–,–,–
ESLVIISPSVADLDP,–,125,88,–,–,120,118,65,99,–,–,–,–,–,–
ESSVIPLVHPLADPS,91,138,104,92,108,121,–,–,–,–,–,–,–,–,–
ETCGFVDERGLYKSL,75,120,64,78,90,85,–,–,–,–,–,–,–,–,–
